Experimental data from patent publication US7511047B2, “Kinase inhibitors” (Cytopia Research Pty Ltd, priority 2002, dated 2009).

How the values were obtained:
Format in all cases: biochemical
Jak2 = target: T1, Jak2 (Homo sapiens, UniProt O60674); test: JAK2 kinase domain assay (ELISA or Alphascreen); settings: capacity to inhibit 50% of activity at 50 μM; read-out: Jak2 inhibitory activity
T1 construct: The kinase domain of humanJAK2 was amplified from U937mRNA; His tag (from pFastBac HTc vector) (N); made in house; host or cells: baculovirus; Sf9 insect cells for virus, High Five cells for large-scale production
Experimental: (§1) For screening purposes, compounds were diluted in 96 well plates at a concentration of 20 μM. Plates were warmed at 37° C. for 30 minutes before assay.
(§2) • JAK1 PCR products were cloned into the pFastBac HTb expression vector (Gibco) via the Xho I and Kpn I sites. The JAK1 plasmid was then transformed into competent DH10Bac cells (Gibco), and the recombinant baculovirus produced prepared for transfection into Sf9 insect cells. JAK2 • The kinase domain of humanJAK2 was amplified from U937mRNA using the polymerase chain reaction with the following primers:
• JAK2 PCR products were cloned into the pFastBac HTc expression vector (Gibco) via the Sal I and Not I sites. The JAK2 plasmid was then transformed into competent DH10Bac cells (Gibco), and the recombinant baculovirus produced prepared for transfection into Sf9 insect cells. JAK3 • The kinase domain of humanJAK3 was amplified from U937mRNA using the polymerase chain reaction with the following primers: […]
(§3) Baculovirus preparations from each of the JAK family members were infected into five litres of High Five cells (Invitrogen) grown in High Five serum free medium (Invitrogen) to a cell density of approximately 1-2×10^6 cells/ml. Cells are infected with virus at a MOI of 0.8-3.0. Cells were harvested and lysed. JAK kinase domains were purified by affinity chromatography on a Probond (Invitrogen) nickel chelate affinity column.
(§4) Kinase assays were performed either in a 96 well capture-based ELISA assay or in 384 well Optiplates (Packard) using an Alphascreen Protein Tyrosine Kinase kit. In either casse using approximately 1.5 μg of affinity purified PTK domain in the presence of 50 mM HEPES, pH 7.5, 10 mM MgCl2, 150 mM NaCl and 10 μM-1 mM ATP. The biotinylated substrate biotin-EGPWLEEEEEAYGWMDF-NH2 (SEQ ID NO:9) (final concentration 5 μM) was used as substrate. In the ELISA assay tyrosine phosphorylation was quantitated following transfer to an avidin coated ELISA plate using peroxidase-linked anti-phospho-tyrosine antibody PY20. In the Alphascreen assay, Alphascreen phosphotyrosine acceptor beads followed by streptavidin donor beads were added under subdued light. The ELISA plates were read on a BMG Fluorostar, the Alphascreen plates were read on a Packard Fusion Alpha. Inhibitors were added to the assays fifteen minutes prior to the addition of ATP. Inhibitors were added in aqueous DMSO, with DMSO concentrations never exceeding 1%.

Jak3 = target: T2, Jak3 (Homo sapiens, UniProt P52333); test: JAK3 kinase domain assay (ELISA or Alphascreen); settings: capacity to inhibit 50% of activity at 50 μM; read-out: Jak3 inhibitory activity
T2 construct: The kinase domain of humanJAK3 was amplified from U937mRNA; His tag (from pFastBac HTb vector) (N); made in house; host or cells: baculovirus; Sf9 insect cells for virus, High Five cells for large-scale production
Experimental: as §1
• JAK2 PCR products were cloned into the pFastBac HTc expression vector (Gibco) via the Sal I and Not I sites. The JAK2 plasmid was then transformed into competent DH10Bac cells (Gibco), and the recombinant baculovirus produced prepared for transfection into Sf9 insect cells. JAK3 • The kinase domain of humanJAK3 was amplified from U937mRNA using the polymerase chain reaction with the following primers:
as §2, with “JAK3” for “JAK1”, “TYK2” for “JAK2”, “humanTYK2” for “humanJAK2”, “A549 mRNA” for “U937mRNA”, “primers: […]” for “primers:”
as §3, §4

abl = target: T3, abl (Homo sapiens, UniProt P00519); test: abl kinase assay (ELISA or Alphascreen); settings: capacity to inhibit 50% of activity at 50 μM; read-out: abl inhibitory activity
T3 sequence (P00519 242-493 limits assumed): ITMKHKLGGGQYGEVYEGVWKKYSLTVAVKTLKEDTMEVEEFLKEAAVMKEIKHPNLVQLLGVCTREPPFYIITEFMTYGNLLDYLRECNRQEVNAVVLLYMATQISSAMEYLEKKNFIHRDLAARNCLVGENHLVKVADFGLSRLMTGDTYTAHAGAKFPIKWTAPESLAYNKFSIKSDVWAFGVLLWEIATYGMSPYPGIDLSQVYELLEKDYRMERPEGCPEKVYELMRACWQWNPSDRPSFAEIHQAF
Experimental: as §1, §4

hck = hck (Homo sapiens, UniProt P08631); test: hck kinase assay (ELISA or Alphascreen); settings: capacity to inhibit 50% of activity at 50 μM; read-out: hck inhibitory activity
Experimental: as §1, §4

kdr = kdr (Homo sapiens, UniProt P35968); test: kdr kinase assay (ELISA or Alphascreen); settings: capacity to inhibit 50% of activity at 50 μM; read-out: kdr inhibitory activity
Experimental: as §1, §4

T2 sequence (P52333 822-1111 limits assumed): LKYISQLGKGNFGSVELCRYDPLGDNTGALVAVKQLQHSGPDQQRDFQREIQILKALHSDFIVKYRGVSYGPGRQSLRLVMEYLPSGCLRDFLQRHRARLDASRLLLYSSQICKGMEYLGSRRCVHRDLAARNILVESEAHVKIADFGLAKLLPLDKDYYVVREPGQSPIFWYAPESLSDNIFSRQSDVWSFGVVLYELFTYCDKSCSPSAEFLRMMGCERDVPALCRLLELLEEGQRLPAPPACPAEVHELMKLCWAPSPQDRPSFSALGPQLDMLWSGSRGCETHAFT
kdr, sequence (P35968 834-1162 limits assumed, species assumed): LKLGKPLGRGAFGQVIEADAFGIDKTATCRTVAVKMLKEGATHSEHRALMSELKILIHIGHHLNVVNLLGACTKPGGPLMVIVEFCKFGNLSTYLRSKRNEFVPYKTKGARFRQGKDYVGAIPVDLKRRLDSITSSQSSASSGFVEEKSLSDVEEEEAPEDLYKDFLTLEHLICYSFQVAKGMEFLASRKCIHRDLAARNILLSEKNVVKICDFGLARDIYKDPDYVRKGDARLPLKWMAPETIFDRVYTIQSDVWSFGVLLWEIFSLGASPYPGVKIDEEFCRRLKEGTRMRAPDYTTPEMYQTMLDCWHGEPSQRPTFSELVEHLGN
T1 sequence (O60674 849-1124 limits assumed): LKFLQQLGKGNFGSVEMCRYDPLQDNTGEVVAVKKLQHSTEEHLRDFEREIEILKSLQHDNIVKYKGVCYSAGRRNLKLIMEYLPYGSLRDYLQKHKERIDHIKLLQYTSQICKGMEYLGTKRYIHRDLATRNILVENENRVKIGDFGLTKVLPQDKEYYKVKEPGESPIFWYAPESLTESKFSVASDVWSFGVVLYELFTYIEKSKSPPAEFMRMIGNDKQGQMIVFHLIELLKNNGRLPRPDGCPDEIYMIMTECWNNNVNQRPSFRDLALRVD
hck, sequence (P08631 262-515 limits assumed, species assumed): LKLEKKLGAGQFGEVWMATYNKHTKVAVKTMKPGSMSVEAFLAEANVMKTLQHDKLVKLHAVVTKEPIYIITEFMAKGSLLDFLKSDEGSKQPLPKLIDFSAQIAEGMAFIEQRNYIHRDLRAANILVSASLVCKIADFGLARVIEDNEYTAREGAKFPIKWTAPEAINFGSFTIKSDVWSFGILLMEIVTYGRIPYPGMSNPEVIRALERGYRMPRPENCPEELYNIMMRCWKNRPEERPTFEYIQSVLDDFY

Compound	inhibition at 50 µM (Jak2) [%]	inhibition at 50 µM (Jak3) [%]	inhibition at 50 µM (abl) [%]	inhibition at 50 µM (hck) [%]	inhibition at 50 µM (kdr) [%]
c1ccc(CNc2cncc(-n3cnc4ccccc43)n2)cc1	> 50	> 50	> 50	> 50	< 50
Fc1ccc(CNc2cncc(-n3cnc4ccccc43)n2)cc1	> 50	< 50	> 50	> 50	< 50
C[C@@H](Nc1cncc(-n2cnc3ncccc32)n1)c1ccccc1	< 50	< 50	< 50	< 50	< 50
CC(=O)Nc1ccc2c(c1)ncn2-c1cncc(N[C@@H](C)c2ccccc2)n1	< 50	< 50	> 50	> 50	> 50
C[C@H](Nc1cncc(-n2cnc3ccc(NC(=O)c4ccccc4)cc32)n1)c1ccccc1	< 50	< 50	> 50	> 50	> 50
C[C@H](Nc1cncc(-n2cnc3cc(NC(=O)c4ccccc4)ccc32)n1)c1ccccc1	< 50	< 50	> 50	> 50	> 50
C[C@H](Nc1cncc(-n2cnc3cc(NCc4cccnc4)ccc32)n1)c1ccccc1	> 50	> 50	> 50	> 50	> 50
C[C@H](Nc1cncc(-n2cnc3ccncc32)n1)c1ccccc1	> 50	> 50	> 50	> 50	> 50
C[C@H](Nc1cncc(-n2cnc3ccc(NC(=O)c4cnccn4)cc32)n1)c1ccccc1	> 50	< 50	< 50	> 50	> 50
C[C@H](Nc1cncc(-n2cnc3cc(CN4CCN(C)CC4)ccc32)n1)c1ccccc1	< 50	< 50	< 50	> 50	> 50
C[C@H](Nc1cncc(-n2cnc3cc(CO)ccc32)n1)c1ccccc1	> 50	< 50	< 50	> 50	> 50
C[C@H](Nc1cncc(-n2cnc3ccc(CO)cc32)n1)c1ccccc1	> 50	> 50	< 50	> 50	> 50
C[C@H](Nc1cncc(-n2cnc3cc(C(=O)NCCN(C)C)ccc32)n1)c1ccccc1	> 50	< 50	> 50	> 50	> 50
C[C@H](Nc1cncc(-n2cnc3cc(NC(=O)[C@@H]4CCCN4C(=O)OC(C)(C)C)ccc32)n1)c1ccccc1	> 50	< 50	> 50	> 50	> 50
C[C@H](Nc1cncc(-n2cnc3cnccc32)n1)c1ccccc1	> 50	> 50	> 50	> 50	> 50
C[C@H](Nc1cncc(-n2cnc3cc(NC(=O)C4CCCN4)ccc32)n1)c1ccccc1 (stereo partly shown)	> 50	> 50	< 50	> 50	> 50
C[C@H](Nc1cncc(-n2cnc3cc(-c4cccnc4)ccc32)n1)c1ccccc1	> 50	> 50	> 50	> 50	> 50
C[C@H](Nc1cncc(-n2cnc3cc(C(=O)NCCCn4ccnc4)ccc32)n1)c1ccccc1	> 50	< 50	> 50	> 50	> 50
C[C@H](Nc1cncc(-n2cnc3cc(C(=O)NCCCN4CCOCC4)ccc32)n1)c1ccccc1	> 50	> 50	> 50	> 50	> 50
CC(Nc1cncc(-n2cnc3ccccc32)n1)c1cccnc1 (stereo not shown)	> 50	> 50	> 50	> 50	> 50
CC(Nc1cncc(-n2cnc3ccccc32)n1)c1ccc(F)cc1 (stereo not shown)	> 50	< 50	> 50	> 50	> 50
C[C@H](Nc1cncc(-n2cnc3ccccc32)n1)c1ccc(-c2cccnc2)cc1	> 50	> 50	< 50	< 50	> 50
C[C@H](Nc1cncc(-n2cnc3cc(-c4ccncc4)ccc32)n1)c1ccccc1	> 50	< 50	> 50	> 50	> 50
C[C@H](Nc1cncc(-n2cnc3cc(Br)ccc32)n1)c1ccccc1	> 50	> 50	> 50	> 50	> 50
C[C@H](Nc1cncc(-n2cnc3ccc(C(=O)NCCCN4CCOCC4)cc32)n1)c1ccccc1	> 50	< 50	> 50	> 50	> 50
C[C@H](Nc1cncc(-n2cnc3cc(NC(=O)C4CCCNC4)ccc32)n1)c1ccccc1 (stereo partly shown)	> 50	> 50	> 50	> 50	> 50
C[C@H](Nc1cncc(-n2cnc3cc(NS(=O)(=O)c4ccccc4)ccc32)n1)c1ccccc1	> 50	> 50	< 50	< 50	> 50
C[C@H](Nc1cncc(-n2cnc3cc(C(=O)NCCCCN4CCOCC4)ccc32)n1)c1ccccc1	> 50	> 50	> 50	> 50	> 50
CC(Nc1cncc(-n2cnc3ccc(CN4CCN(C)CC4)cc32)n1)c1ccc(F)cc1 (stereo not shown)	< 50	< 50	< 50	> 50	> 50
